Bridge positions count the residues as written; N and C are the ends. Square brackets hold non-standard residues; d marks the D form. Ends that are not written are not given here. pGlu = O=C1CC[C@@H](C(=O)O)N1
Target: full-length TDP1 (Homo sapiens, UniProt Q9NUW8)
Experiment: FRET-based TDP1 enzymatic activity inhibition assay
Assay type: biochemical

Sequence of full-length TDP1 (Q9NUW8 whole entry): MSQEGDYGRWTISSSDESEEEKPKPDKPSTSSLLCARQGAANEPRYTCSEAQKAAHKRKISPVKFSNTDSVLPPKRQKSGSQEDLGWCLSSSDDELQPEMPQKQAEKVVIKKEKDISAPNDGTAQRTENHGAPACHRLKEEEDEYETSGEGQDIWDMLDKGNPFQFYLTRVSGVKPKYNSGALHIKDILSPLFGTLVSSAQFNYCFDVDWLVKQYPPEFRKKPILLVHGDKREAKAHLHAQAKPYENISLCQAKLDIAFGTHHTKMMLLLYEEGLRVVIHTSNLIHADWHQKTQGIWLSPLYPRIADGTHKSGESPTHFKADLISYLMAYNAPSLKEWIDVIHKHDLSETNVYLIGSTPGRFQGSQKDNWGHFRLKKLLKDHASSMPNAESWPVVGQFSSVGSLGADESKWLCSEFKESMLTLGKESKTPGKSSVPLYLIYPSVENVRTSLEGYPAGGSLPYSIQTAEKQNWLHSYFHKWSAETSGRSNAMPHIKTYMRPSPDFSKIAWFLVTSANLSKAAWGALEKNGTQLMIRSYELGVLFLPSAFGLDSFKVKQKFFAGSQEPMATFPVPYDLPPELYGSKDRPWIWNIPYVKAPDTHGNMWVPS

Row | IC50 | Substance
1 | 800 nM | [pGlu]EAFCYSDRFCQNYIGSIPDCCFGRGSYSFELQPPPWECYQC (disulfide 5-21, 11-39, 22-42) [Native recifin A, recifin A]
2 | 580 nM | [pGlu]EAFCYSDRFCQNYIGSIPDCCFGRGSYSFELQPPPWECYQC (disulfide 5-21, 11-39, 22-42) [Synthetic recifin A, recifin A]
